The NIST ThermoML archive (doi:10.1016/j.fluid.2011.09.020)
Numbers after ± are expanded uncertainties.

Details: Liquid, Ebulliometric method (Recirculating still)

O=C(O)C(Cl)Cl [2,2-dichloroacetic acid]
Details	vapor or sublimation pressure [kPa]
384.3 K	5 ± 0.1
388.3 K	6 ± 0.1
391.8 K	7 ± 0.1
394.8 K	8 ± 0.1
397.6 K	9 ± 0.1
400.2 K	10 ± 0.1
402.4 K	11 ± 0.1
404.3 K	12 ± 0.1
406.4 K	13 ± 0.1
408.3 K	14 ± 0.1
410.1 K	15 ± 0.1
414.1 K	17.5 ± 0.1
417.5 K	20 ± 0.1
423.5 K	25 ± 0.1
428.6 K	30 ± 0.1
437 K	40 ± 0.1

O=C(O)CCl [chloroethanoic acid]
Details	vapor or sublimation pressure [kPa]
380.7 K	5 ± 0.1
384.7 K	6 ± 0.1
389.5 K	7.5 ± 0.1
391 K	8 ± 0.1
393.8 K	9 ± 0.1
396.3 K	10 ± 0.1
398.7 K	11 ± 0.1
400.7 K	12 ± 0.1
402.7 K	13 ± 0.1
404.6 K	14 ± 0.1
406.3 K	15 ± 0.1
410.2 K	17.5 ± 0.1
413.7 K	20 ± 0.1
419.5 K	25 ± 0.1
424.5 K	30 ± 0.1
432.6 K	40 ± 0.1
